Source: patent publication US9932327B2, “Rohitukine analogs as cyclin-dependent kinase inhibitors and a process for the preparation thereof” (COUNCIL OF SCIENTIFIC AND INDUSTRIAL RESEARCH, priority 2013, dated 2018)

What was measured:
Format in all cases: cell-based
MIAPaCa-2 (pancreatic) = assay: Cytotoxicity, MTT assay, MIAPaCa-2; conditions: Homo sapiens, MIA PaCa-2, read-out: Cell Growth Inhibition (%)
Protocol: (§1) Compounds proposed in the present invention were evaluated for their cytotoxic effect against panel of six cancer cell line viz. HL-60 (Leukemia), PC-3 (Prostate), A-375 (Melanoma), MIAPaCa-2 (pancreatic), MCF-7 (Breast) and Caco-2 (Colon) using MTT assay. In each well of a 96-well plate, 3×10^3 cells were grown in 100 μL of medium. After 24 h, each test molecules were added to achieve a final concentration of 10 to 0.01 μmol/L, respectively. After 48 h of treatment, 20 μL of 2.5 mg/mL MTT (Organics Research, Inc.) solution in phosphate buffer saline was added to each well. After 48 h, supernatant was removed and formazan crystals were dissolved in 200 μL of DMSO. Absorbance was then measured at 570 nm using an absorbance plate reader (Bio-Rad Microplate Reader). Data are expressed as the percentage of viable cells in treated relative to non-treated conditions.

Caco-2 (Colon) = assay: Cytotoxicity, MTT assay, Caco-2; conditions: Homo sapiens; for inhibition at 10 µM: read-out: Cell Growth Inhibition (%)
Protocol: as §1

HL-60 (Leukemia) = assay: Cytotoxicity, MTT assay, HL-60; conditions: Homo sapiens; for inhibition at 10 µM: read-out: Cell Growth Inhibition (%)
Protocol: as §1

MCF-7 (Breast) = assay: Cytotoxicity, MTT assay, MCF-7; conditions: Homo sapiens; for inhibition at 10 µM: MCF7, 10 μM, read-out: Cell Growth Inhibition (%); for IC50: MCF7
Protocol: as §1

PC-3 (Prostate) = assay: Cytotoxicity, MTT assay, PC-3; conditions: for inhibition at 10 µM: read-out: Cell Growth Inhibition (%)
Protocol: as §1

A-375 (Melanoma) = assay: Cytotoxicity, MTT assay, A-375; conditions: Homo sapiens; for inhibition at 10 µM: read-out: Cell Growth Inhibition (%)
Protocol: as §1

SMILES | inhibition at 10 µM (MIAPaCa-2 (pancreatic)) [%] | inhibition at 10 µM (Caco-2 (Colon)) [%] | inhibition at 10 µM (HL-60 (Leukemia)) [%] | inhibition at 10 µM (MCF-7 (Breast)) [%] | inhibition at 10 µM (PC-3 (Prostate)) [%] | inhibition at 10 µM (A-375 (Melanoma)) [%] | IC50 (A-375 (Melanoma)) [µM] | IC50 (Caco-2 (Colon)) [µM] | IC50 (HL-60 (Leukemia)) [µM] | IC50 (MCF-7 (Breast)) [µM] | IC50 (PC-3 (Prostate)) [µM]
Cc1cc(=O)c2c(O)cc(OCc3ccc([N+](=O)[O-])cc3)c(C3CCN(C)CC3O)c2o1 (centres unmarked) [Compound 8, 7-(4-Nitrobenzyloxy)-5-hydroxy-8-(3-hydroxy-1-methylpiperidin-4-yl)-2-methyl-4H-chromen-4-one] | 12.4 | 13.6 | 14.4 | 39.3 | 23 | 37.5 | – | – | – | – | –
Cc1cc(=O)c2c(O)cc(OC(=O)c3ccco3)c(C3CCN(C)CC3O)c2o1 (centres unmarked) [Compound 11, 5-Hydroxy-8-(3-hydroxy-1-methylpiperidin-4-yl)-2-methyl-4-oxo-4H-chromen-7-yl furan-2-carboxylate] | 16.1 | 1.96 | 80.2 | 2.86 | 15.1 | 11.2 | – | – | – | – | –
Cc1cc(=O)c2c(O)cc(OCc3ccccc3)c(C3CCN(C)CC3O)c2o1 (centres unmarked) [Compound 2, 7-(benzyloxy)-5-hydroxy-8-(3-hydroxy-1-methylpiperidin-4-yl)-2-methyl-4H-chromen-4-one] | 13.8 | 17.6 | 24.3 | 1.44 | 41 | 27.8 | – | – | – | – | –
Cc1cc(=O)c2c(O)cc(OCc3ccccc3Br)c(C3CCN(C)CC3O)c2o1 (centres unmarked) [Compound 9, 7-(2-Bromobenzyloxy)-5-hydroxy-8-(3-hydroxy-1-methylpipetidin-4-yl)-2-methyl-4H-chromen-4-one] | 29.7 | 35.1 | 3.05 | 45.4 | 31.7 | 58.6 | 12 | – | – | – | –
Cc1cc(=O)c2c(O)cc(OCc3ccc(Br)cc3)c(C3CCN(C)CC3O)c2o1 (centres unmarked) [Compound 4, 7-(4-Bromobenzyloxy)-5-hydroxy-8-(3-hydroxy-1-methylpiperidin-4-yl)-2-methyl-4H-chromen-4-one] | 13.2 | 13 | 26.9 | 14 | 17.1 | 45.5 | – | – | – | – | –
CN1CCC(c2c(O)cc(O)c3c(=O)cc(/C=C/c4ccccc4F)oc23)C(O)C1 (centres unmarked) [Compound 30, 2-(2-Fluorostyryl)-5,7-dihydroxy-8-(3-hydroxy-1-methylpiperidin-4-yl)-4H-chromen-4-one] | 21.3 | 51 | 80.5 | 81.1 | 72.2 | 54.1 | 7 | 8 | 8 | 3 | 7
Cc1cc(=O)c2c(O)cc(OCc3cccs3)c(C3CCN(C)CC3O)c2o1 (centres unmarked) [Compound 6, 7-((Thiophen-2-yl)methoxy)-5-hydroxy-8-(3-hydroxy-1-methylpiperidin-4-yl)-2-methyl-4H-chromen-4-one] | 13.2 | 33.3 | 22.2 | 19.8 | 22.8 | 53.8 | 8 | – | – | – | –
CN1CCC(c2c(O)cc(O)c3c(=O)cc(/C=C/c4c5ccccc5cc5ccccc45)oc23)C(O)C1 (centres unmarked) [Compound 29, 2-((E)-2-(Anthracen-10-yl)vinyl)-5,7-dihydroxy-8-(3-hydroxy-1-methylpiperidin-4-yl)-4H-chromen-4-one] | 17 | 0 | 12.1 | 12.7 | 50.5 | 4.96 | – | – | – | – | 12
Cc1oc2c(C3CCN(C)CC3O)c(O)cc(O)c2c(=O)c1C(O)c1cccc(Cl)c1 (centres unmarked) [Compound 17, 3-((3-Chlorophenyl)(hydroxy)methyl)-5,7-dihydroxy-8-(3-hydroxy-1-methylpiperidin-4-yl)-2-methyl-4H-chromen-4-one] | 1.52 | 4.42 | 22.2 | 5.01 | 31 | 34.9 | – | – | – | – | –
Cc1oc2c(C3CCN(C)CC3O)c(O)cc(O)c2c(=O)c1C(O)c1c(F)cccc1Cl (centres unmarked) [Compound 21, 3-((2-Chloro-6-fluorophenyl)(hydroxy)methyl)-5,7-dihydroxy-8-(3-hydroxy-1-methylpiperidin-4-yl)-2-methyl-4H-chromen-4-one] | 8.58 | 5.94 | 25.4 | 13.6 | 72.5 | 20.8 | – | – | – | – | –
Cc1oc2c(C3CCN(C)CC3O)c(O)cc(O)c2c(=O)c1C(O)c1ccccc1Br (centres unmarked) [Compound 15, 3-((2-Bromophenyl)(hydroxy)methyl)-5,7-dihydroxy-8-(3-hydroxy-1-methylpiperidin-4-yl)-2-methyl-4H-chromen-4-one] | 10.1 | 6.62 | 52 | 20.6 | 44.5 | 22.4 | – | – | – | – | –
CN1CCC(c2c(O)cc(O)c3c(=O)cc(/C=C/c4cccc(Cl)c4)oc23)C(O)C1 (centres unmarked) [Compound 28, 2-(3-Chlorostyryl)-5,7-dihydroxy-8-(3-hydroxy-1-methylpiperidin-4-yl)-4H-chromen-4-one] | 40.3 | 27.5 | 24.3 | 80.4 | 53.7 | 65.9 | 4 | – | – | 2 | 10
Cc1cc(=O)c2c(O)cc(OCc3nc4ccccc4[nH]3)c(C3CCN(C)CC3O)c2o1 (centres unmarked) [Compound 10, 7-((1H-Benzo[d]imidazol-2-yl)methoxy)-5-hydroxy-8-(3-hydroxy-1-methylpiperidin-4-yl)-2-methyl-4H-chromen-4-one] | – | – | – | – | – | – | – | – | 8 | – | –
Cc1cc(=O)c2c(O)cc(OC/C=C/c3ccccc3)c(C3CCN(C)CC3O)c2o1 (centres unmarked) [Compound 7, 7-(Cinnamyloxy)-5-hydroxy-8-(3-hydroxy-1-methylpiperidin-4-yl)-2-methyl-4H-chromen-4-one] | 11.2 | 9.49 | 21 | 7.02 | 18.3 | 21.8 | – | – | – | – | –
Cc1oc2c(C3CCN(C)CC3O)c(O)cc(O)c2c(=O)c1C(O)c1c(Cl)cccc1Cl (centres unmarked) [Compound 20, 3-((2,6-dichlorophenyl)(hydroxy)methyl)-5,7-dihydroxy-8-(3-hydroxy-1-methylpiperidin-4-yl)-2-methyl-4H-chromen-4-one] | – | – | – | – | – | – | – | – | – | – | 5
Cc1cc(=O)c2c(O)cc(OC(=O)c3ccccc3C)c(C3CCN(C)CC3O)c2o1 (centres unmarked) [Compound 12, 5-Hydroxy-8-(3-hydroxy-1-methylpiperidin-4-yl)-2-methyl-4-oxo-4H-chromen-7-yl 2-methylbenzoate] | 7.19 | 6.53 | 12.8 | 13.4 | 18.6 | 42 | – | – | – | – | –
Cc1oc2c(C3CCN(C)CC3O)c(O)cc(O)c2c(=O)c1C(O)c1ccc([N+](=O)[O-])cc1 (centres unmarked) [Compound 13, 5,7-Dihydroxy-3-(hydroxy(4-nitrophenyl)methyl)-8-(3-hydroxy-1-methylpiperidin-4-yl)-2-methyl-4H-chromen-4-one] | 2.48 | 5.08 | 0 | 4.03 | 23.8 | 35.9 | – | – | – | – | –
Cc1oc2c(C3CCN(C)CC3O)c(O)cc(O)c2c(=O)c1C(O)c1ccc(Cl)cc1 (centres unmarked) [Compound 14, 3-((4-Chlorophenyl)(hydroxy)methyl)-5,7-dihydroxy-8-(3-hydroxy-1-methylpiperidin-4-yl)-2-methyl-4H-chromen-4-one] | 14.8 | 2.83 | 1.93 | 5.91 | 41 | 34.2 | – | – | 11 | – | –
CN1CCC(c2c(O)cc(O)c3c(=O)cc(/C=C/c4ccc(Cl)cc4)oc23)C(O)C1 (centres unmarked) [Compound 32, 2-(4-Chlorostyryl)-5,7-dihydroxy-8-(3-hydroxy-1-methylpiperidin-4-yl)-4H-chromen-4-one] | – | – | – | – | – | – | 30 | 5.6 | 8 | 49 | 31
COc1ccc(COc2cc(O)c3c(=O)cc(C)oc3c2C2CCN(C)CC2O)cc1 (centres unmarked) [Compound 3, 7-(4-Methoxybenzyloxy)-5-hydroxy-8-(3-hydroxy-1-methylpiperidin-4-yl)-2-methyl-4H-chromen-4-one] | 15.7 | 8.43 | 22.8 | 15.6 | 35.2 | – | – | – | – | – | –
CN1CCC(c2c(O)cc(O)c3c(=O)cc(/C=C/c4ccccc4)oc23)C(O)C1 (centres unmarked) [Compound 31, 2-styryl-5,7-dihydroxy-8-(3-hydroxy-1-methylpiperidin-4-yl)-4H-chromen-4-one] | – | – | – | – | – | – | 4.4 | 3.7 | 1 | 31 | 58
